Test results as given in ChEMBL document CHEMBL5506050, “Discovery of Oral AMP-Activated Protein Kinase Activators for Treating Hyperlipidemia” (J Med Chem, 2024).
Active and inactive are the calls of the source. No cut-off for these calls is given here.

Experiments:
Rhesus monkey [1] = assay: Lipid lowering effect in Rhesus monkey assessed as decrease in serum LDL-C level at 35 mg/kg, NG qd measured after 21 days relative to control; type: functional, Macaca mulatta; parameters: scale not given: the % may be the effect or the level left; settings: time 21 day
Mus musculus [2] = assay: Lipid lowering effect on high-fat diet-fed C57BL/6J mouse assessed as decrease in serum LDL-C level at 40 mg/kg/day, po administered via gavage measured after 7 days relative to control; type: functional; parameters: scale not given: the % may be the effect or the level left; settings: time 7 day
Mus musculus [3] = assay: Downregulation of Mvd mRNA level in liver of high-fat diet-fed C57BL/6 mouse model at 200 mg/kg, po for 4 weeks by GO analysis; type: functional, organism-based
Mus musculus [4] = assay: Downregulation of Pcsk9 mRNA level in liver of high-fat diet-fed C57BL/6 mouse model at 200 mg/kg, po for 4 weeks by GO analysis; type: functional, organism-based
[5] = biological target: AMP-activated protein kinase, AMPK; assay: Binding affinity to truncated AMPK (unknown origin) assessed as dissociation constant by CD analysis; type: protein-complex assay, Homo sapiens
[6] = Tmax in male Rhesus monkey at 70 mg/kg, po or 7 mg/kg, iv measured for 36 hrs by LC-tandem MS analysis; type: ADME, organism-based, Macaca mulatta; settings: in vivo
[7] = Acute toxicity in golden hamster assessed as intense toxic response at 20 g/Kg, po measured for 14 days; type: organism-based, Mesocricetus auratus; settings: in vivo, 20000 mg/kg, 336 h, time 14 day
Syrian golden hamster [8] = assay: Lipid lowering effect on high-fat diet-fed golden hamster assessed as decrease in serum LDL-C level at 6 mg/kg, po qd administered via gavage measured after 4 weeks relative to control; type: functional, Mesocricetus auratus; parameters: scale not given: the % may be the effect or the level left
Mus musculus [9] = assay: Effect on Dnajb9 mRNA level in liver of diet-induced obese C57BL/6 mouse model harboring AMPKalpha LS-/- at 200 mg/kg, po for 4 weeks by GO analysis; type: functional, organism-based
[10] = Acute toxicity in golden hamster assessed as animal survival at 20 g/Kg, po measured for 14 days; type: organism-based, Mesocricetus auratus; settings: in vivo, 20000 mg/kg, 336 h, time 14 day
Syrian golden hamster [11] = assay: Lipid lowering effect on high-fat diet-fed golden hamster assessed as decrease in serum LDL-C level at 200 mg/kg, po qd administered via gavage measured after 4 weeks relative to control; type: functional, Mesocricetus auratus; parameters: scale not given: the % may be the effect or the level left
[12] = Stability in human Caco-2 cells assessed as compound remaining at 10 ug/ml measured after 1 hr by LC-MS/MS analysis; type: ADME, cell-based; settings: at 10 µg/mL, read-out: Stability
Mus musculus [13] = assay: Effect on Dhcr7 mRNA level in liver of diet-induced obese C57BL/6 mouse model harboring AMPKalpha LS-/- at 200 mg/kg, po for 4 weeks by GO analysis; type: functional, organism-based
Homo sapiens [14] = species: Homo sapiens; assay: Downregulation of serum TC level in human at 2000 mg bid for 7 days; type: functional; settings: time 7.0 day
Mus musculus [15] = assay: Effect on Pparg mRNA level in liver of diet-induced obese C57BL/6 mouse model harboring AMPKalpha LS-/- at 200 mg/kg, po for 4 weeks by GO analysis; type: functional, organism-based
[16] = Efflux ratio of apparent permeability across basal to apical side over apical to basal side in human Caco-2 cells at 21 uM incubated for 2 hrs by LC-MS/MS analysis; type: ADME, cell-based
[17] = biological target: AMP-activated protein kinase, AMPK; assay: Binding affinity to recombinant AMPK (unknown origin)-immobilized in CM5 sensor chip assessed as dissociation constant by SPR analysis; type: protein-complex assay, Homo sapiens
Rhesus monkey [18] = assay: Lipid lowering effect in Rhesus monkey assessed as decrease in serum LDL-C level at 35 mg/kg, NG qd measured after 7 days; type: functional, organism-based; settings: Macaca mulatta, time 7.0 day
[19] = Stability in human Caco-2 cells assessed as compound remaining at 10 ug/ml measured after 3 hrs by LC-MS/MS analysis; type: ADME, cell-based; settings: at 10 µg/mL, read-out: Stability
[20] = biological target: AMP-activated protein kinase (AMPK) alpha-1/beta-1/gamma-1 (Homo sapiens) (UniProt P54619+Q9Y478+Q13131); assay: Activation of AMPK alpha1/AMPKbeta1/AMPKgamma1 (unknown origin) using SAMS peptide as substrate assessed as relative enzyme activity at 10 uM incubated for 20 mins in presence of [gamma-32P]ATP by scintillation counter analysis; type: protein-complex assay; settings: filed as activator
Homo sapiens [21] = species: Homo sapiens; assay: Downregulation of serum LDL-C level in human at 2000 mg bid for 7 days; type: functional; settings: time 7.0 day
[22] = Tmax in female Rhesus monkey at 70 mg/kg, po or 7 mg/kg, iv measured for 36 hrs by LC-tandem MS analysis; type: ADME, organism-based, Macaca mulatta; settings: in vivo
Mus musculus [23] = assay: Effect on Ccl2 mRNA level in liver of diet-induced obese C57BL/6 mouse model harboring AMPKalpha LS-/- at 200 mg/kg, po for 4 weeks by GO analysis; type: functional, organism-based
Mus musculus [24] = assay: Downregulation of Ctgf mRNA level in liver of high-fat diet-fed C57BL/6 mouse model at 200 mg/kg, po for 4 weeks by GO analysis; type: functional, organism-based
Mus musculus [25] = assay: Lipid lowering effect on high-fat diet-fed Kunming mouse assessed as serum total cholesterol level at 50 mg/kg, po qd via gavage for 7 days consecutively (reference value: 159.3 +/- 11.5 mg/dl); type: functional; settings: time 7 day
Mus musculus [26] = assay: Downregulation of Pparg mRNA level in liver of high-fat diet-fed C57BL/6 mouse model at 200 mg/kg, po for 4 weeks by GO analysis; type: functional, organism-based
[27] = Cmax in female Rhesus monkey at 70 mg/kg, po or 7 mg/kg, iv measured for 36 hrs by LC-tandem MS analysis; type: ADME, organism-based, Macaca mulatta; settings: in vivo
[28] = Acute toxicity in golden hamster administered orally measured for 14 days; parameters: species or system Mesocricetus auratus; settings: in vivo, route po, time 14 day
Syrian golden hamster [29] = assay: Effect on food uptake in high-fat diet-fed golden hamster at 50 to 200 mg/kg, po qd administered via gavage measured after 4 weeks; type: functional, organism-based; settings: Mesocricetus auratus, dose 50-200 mg/kg
Rhesus monkey [30] = assay: Lipid lowering effect in Rhesus monkey assessed as decrease in blood LDL-C level at 35 mg/kg, NG qd treated for 35 days followed by drug washout for 14 days relative to control; type: functional, Macaca mulatta; parameters: scale not given: the % may be the effect or the level left; settings: time 35 day
Mus musculus [31] = assay: Effect on Ctgf mRNA level in liver of diet-induced obese C57BL/6 mouse model harboring AMPKalpha LS-/- at 200 mg/kg, po for 4 weeks by GO analysis; type: functional, organism-based
Syrian golden hamster [32] = assay: Lipid lowering effect on high-fat diet-fed golden hamster assessed as decrease in serum TG level administered orally once daily via gavage measured after 4 weeks measured after 4 weeks; type: functional, organism-based; settings: Mesocricetus auratus, dose 50-200 mg/kg, route po
[33] = Apparent permeability across apical to basal side in human Caco-2 cells at 21 uM incubated for 2 hrs by LC-MS/MS analysis; type: ADME, cell-based
Syrian golden hamster [34] = assay: Effect on adipose tissue weight in high-fat diet-fed golden hamster at 50 to 200 mg/kg, po qd administered via gavage measured after 4 weeks; type: functional, organism-based; settings: Mesocricetus auratus, dose 50-200 mg/kg
Mus musculus [35] = assay: Downregulation of Syvn1 mRNA level in liver of high-fat diet-fed C57BL/6 mouse model at 200 mg/kg, po for 4 weeks by GO analysis; type: functional, organism-based
Mus musculus [36] = assay: Effect on Syvn1 mRNA level in liver of diet-induced obese C57BL/6 mouse model harboring AMPKalpha LS-/- at 200 mg/kg, po for 4 weeks by GO analysis; type: functional, organism-based
Mus musculus [37] = assay: Upregulation of Gadd45a mRNA level in liver of high-fat diet-fed C57BL/6 mouse model at 200 mg/kg, po for 4 weeks by GO analysis; type: functional, organism-based

Sequence of AMP-activated protein kinase (AMPK) alpha-1/beta-1/gamma-1 (Homo sapiens) (P54619 whole entry): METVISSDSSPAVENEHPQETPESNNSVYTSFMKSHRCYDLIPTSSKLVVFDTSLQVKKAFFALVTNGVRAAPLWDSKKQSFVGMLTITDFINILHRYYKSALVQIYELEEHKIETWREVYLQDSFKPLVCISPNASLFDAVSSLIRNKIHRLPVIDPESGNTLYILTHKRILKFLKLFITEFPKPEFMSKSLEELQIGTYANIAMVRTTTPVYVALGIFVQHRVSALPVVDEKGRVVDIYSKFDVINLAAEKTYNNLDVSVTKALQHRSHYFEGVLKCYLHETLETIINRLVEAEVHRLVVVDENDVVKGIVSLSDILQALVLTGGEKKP
Sequence of AMP-activated protein kinase (AMPK) alpha-1/beta-1/gamma-1 (Homo sapiens) (Q13131 whole entry partner): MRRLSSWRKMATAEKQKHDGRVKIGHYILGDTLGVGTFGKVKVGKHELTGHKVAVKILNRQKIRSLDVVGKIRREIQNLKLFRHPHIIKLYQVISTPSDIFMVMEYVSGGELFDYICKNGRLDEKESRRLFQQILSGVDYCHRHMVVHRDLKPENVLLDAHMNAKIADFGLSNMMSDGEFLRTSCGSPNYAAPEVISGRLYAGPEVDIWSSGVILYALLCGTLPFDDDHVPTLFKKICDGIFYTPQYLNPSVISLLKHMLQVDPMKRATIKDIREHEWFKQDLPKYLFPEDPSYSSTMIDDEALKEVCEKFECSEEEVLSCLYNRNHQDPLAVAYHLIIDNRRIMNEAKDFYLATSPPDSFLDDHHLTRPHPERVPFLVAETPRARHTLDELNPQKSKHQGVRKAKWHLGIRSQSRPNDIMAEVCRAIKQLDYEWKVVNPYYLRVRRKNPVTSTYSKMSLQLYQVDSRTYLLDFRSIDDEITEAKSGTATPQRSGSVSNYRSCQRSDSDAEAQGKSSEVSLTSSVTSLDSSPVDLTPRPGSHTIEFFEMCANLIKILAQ
Sequence of AMP-activated protein kinase (AMPK) alpha-1/beta-1/gamma-1 (Homo sapiens) (Q9Y478 2-270 partner limits assumed): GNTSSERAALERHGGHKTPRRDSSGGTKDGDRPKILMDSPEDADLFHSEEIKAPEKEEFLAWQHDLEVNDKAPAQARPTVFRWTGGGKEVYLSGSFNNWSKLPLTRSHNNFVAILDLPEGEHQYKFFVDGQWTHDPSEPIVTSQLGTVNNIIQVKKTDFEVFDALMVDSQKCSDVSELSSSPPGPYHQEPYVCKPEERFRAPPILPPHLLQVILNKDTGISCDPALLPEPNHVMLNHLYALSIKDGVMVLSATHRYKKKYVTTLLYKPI

With `CC(=O)OC[C@H]1O[C@@H](n2cnc3c(Nc4cccc(O)c4)ncnc32)[C@H](OC(C)=O)[C@@H]1OC(C)=O` the Activity (Rhesus monkey [1]) was 23.69%, the Activity (Mus musculus [2]) was 32.6% and the Activity (Mus musculus [3]) was “Active”. For the same compound, the Activity (Mus musculus [4]) was “Active”, the Kd [5] was 0.21 µM and the Tmax [6] was 1.5 h. For the same compound, the Activity [7] was “Non-Toxic”, the Activity (Syrian golden hamster [8]) was 27.5% and the Activity (Mus musculus [9]) was “inactive”. For the same compound, the Activity [10] was “Non-Toxic”, the Activity (Syrian golden hamster [11]) was 42% and the remaining at 1 h, 10 ug/ml [12] was 77%. For the same compound, the Activity (Mus musculus [13]) was “inactive”, the Activity (Homo sapiens [14]) was “Active” and the Activity (Mus musculus [15]) was “inactive”. For the same compound, the efflux ratio at 2 h, 21 µM [16] was 1.9, the Kd [17] was 17.9 µM and the Activity (Rhesus monkey [18]) was “Active”. The remaining at 3 h, 10 ug/ml [19] was 52%, the Activity [20] was 2.31 and the Activity (Homo sapiens [21]) was “Active”. For the same compound, the Tmax [22] was 2.25 h, the Activity (Mus musculus [23]) was “inactive” and the Activity (Mus musculus [24]) was “Active”. The Activity (Mus musculus [25]) was 151.7 mg/dL, the Activity (Mus musculus [26]) was “Active” and the Cmax [27] was 25.9 ng/mL. The LD50 at 336 h [28] was over 20000 mg/kg, the Activity (Syrian golden hamster [29]) was “inactive” and the Activity (Rhesus monkey [30]) was 11.93%. For the same compound, the Activity (Mus musculus [31]) was “inactive”, the Activity (Syrian golden hamster [32]) was “Dose-Dependent Effect” and the Papp A→B at 2 h, 21 µM [33] was 8 ×10⁻⁶ cm/s. For the same compound, the Activity (Syrian golden hamster [34]) was “inactive”, the Activity (Mus musculus [35]) was “Active” and the Activity (Mus musculus [36]) was “inactive”. For the same compound, the Activity (Mus musculus [37]) was “Active”.
